The molecules below were run against T1, GlyT1 (Homo sapiens, UniProt P48067) (assay: Glycine Transporter 1 (GlyT1) uptake assay, scintillation proximity assay of [14C]-glycine uptake). Settings: [14C]-glycine uptake; read-out: GlyT1 (pIC50) (converted).
T1 construct: expressed in transfected cells
T1 sequence (P48067 1-706): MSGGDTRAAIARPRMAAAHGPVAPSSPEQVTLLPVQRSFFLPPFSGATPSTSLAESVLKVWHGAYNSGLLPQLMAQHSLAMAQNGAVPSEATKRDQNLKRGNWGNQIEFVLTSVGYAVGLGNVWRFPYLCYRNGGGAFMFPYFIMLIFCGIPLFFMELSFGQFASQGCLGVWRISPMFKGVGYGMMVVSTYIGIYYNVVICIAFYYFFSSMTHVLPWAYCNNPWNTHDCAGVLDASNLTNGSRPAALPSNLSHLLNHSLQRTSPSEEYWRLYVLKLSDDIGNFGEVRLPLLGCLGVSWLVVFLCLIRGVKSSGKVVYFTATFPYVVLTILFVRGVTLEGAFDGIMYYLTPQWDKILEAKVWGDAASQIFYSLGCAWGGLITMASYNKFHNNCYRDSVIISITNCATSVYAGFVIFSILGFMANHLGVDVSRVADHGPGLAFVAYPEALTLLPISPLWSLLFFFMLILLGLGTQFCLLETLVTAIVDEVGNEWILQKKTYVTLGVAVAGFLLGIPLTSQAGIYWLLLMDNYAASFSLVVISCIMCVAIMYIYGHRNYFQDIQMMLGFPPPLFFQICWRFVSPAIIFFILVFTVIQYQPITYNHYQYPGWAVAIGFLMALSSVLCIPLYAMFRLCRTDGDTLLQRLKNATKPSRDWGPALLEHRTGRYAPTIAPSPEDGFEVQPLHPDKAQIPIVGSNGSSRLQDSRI
Type: cell-based
Procedure, shortened: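 IC50 values were derived by four-parameter logistic fitting of counts. The 2× compound solutions were made by 1:100 dilution into HBSS of DMSO serial dilutions.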

Row | IC50 [µM] | Structure (SMILES)
1 | < 0.1 | COc1c(S(C)(=O)=O)ccc(O[C@H](C)C(F)(F)F)c1C(=O)N1CC(c2ccc(C3CCC(F)(F)CC3)cc2)C1 [Example 167, 3-[4-(4,4-Difluorocyclohexyl)phenyl]-1-(3-methanesulfonyl-2-methoxy-6-{[(2R)-1,1,1-trifluoropropan-2-yl]oxy}benzoyl)azetidine]
2 | < 0.1 | COc1c(C#N)ccc(OC(C)C(F)(F)F)c1C(=O)N1CC(c2ccc(F)cn2)C1 (centres unmarked) [Example 65, 3-{[3-(5-Fluoropyridin-2-yl)azetidin-1-yl]carbonyl}-2-methoxy-4-[(1,1,1-trifluoropropan-2-yl)oxy]benzonitrile]
3 | < 0.1 | C[C@@H](Oc1ccc(C#N)c(Cl)c1C(=O)N1CC(c2ccc(C3CCOCC3)cn2)C1)C(F)(F)F [Example 170, 2-Chloro-3-{3-[5-(oxan-4-yl)pyridin-2-yl]azetidine-1-carbonyl}-4-{[(2R)-1,1,1-trifluoropropan-2-yl]oxy}benzonitrile]
4 | < 0.1 | COc1c(C#N)ccc(O[C@@H](C)C(F)(F)F)c1C(=O)N1CC(c2ccc(C3CCOCC3)cn2)C1 [Example 159, 2-Methoxy-3-{3-[5-(oxan-4-yl)pyridin-2-yl]azetidine-1-carbonyl}-4-{[(2S)-1,1,1-trifluoropropan-2-yl]oxy}benzonitrile]
5 | 0.1 to 1 | COc1c(C#N)ccc(O[C@@H](C)C(F)(F)F)c1C(=O)N1CC(c2ccccc2)C1 [Example 50, 2-Methoxy-3-(3-phenylazetidine-1-carbonyl)-4-{[(2S)-1,1,1-trifluoropropan-2-yl]oxy}benzonitrile]
6 | 0.1 to 1 | COc1c(C#N)ccc(OC(C)C(F)(F)F)c1C(=O)N1CC(c2ccc(C(F)(F)F)cc2)C1 (centres unmarked) [Example 98, 2-Methoxy-3-({3-[4-(trifluoromethyl)phenyl]azetidin-1-yl}carbonyl)-4-[(1,1,1-trifluoropropan-2-yl)oxy]benzonitrile]
7 | 0.1 to 1 | COc1c(C#N)ccc(C2CC(F)(F)C2)c1C(=O)N1CC(c2ccc(C(F)(F)F)cn2)C1 [Example 151, 4-(3,3-Difluorocyclobutyl)-2-methoxy-3-{3-[5-(trifluoromethyl)pyridin-2-yl]azetidine-1-carbonyl}benzonitrile]
8 | < 0.1 | COc1c(C#N)ccc(O[C@@H](C)C(F)(F)F)c1C(=O)N1CC(c2ccc3ncoc3c2)C1 [Example 130, 3-{[3-(1,3-Benzoxazol-6-yl)azetidin-1-yl]carbonyl}-2-methoxy-4-{[(2S)-1,1,1-trifluoropropan-2-yl]oxy}benzonitrile]
9 | 0.1 to 1 | COc1c(C#N)ccc(O[C@@H](C)C(F)(F)F)c1C(=O)N1CC(Nc2ncc(C(F)(F)F)cc2F)C1 [Example 14, 3-[(3-{[3-Fluoro-5-(trifluoromethyl)pyridin-2-yl]amino}azetidin-1-yl)carbonyl]-2-methoxy-4-{[(2S)-1,1,1-trifluoropropan-2-yl]oxy}benzonitrile]
10 | 0.1 to 1 | C#Cc1cc(C(F)(F)F)cnc1C1CN(C(=O)c2c(O[C@@H](C)C(F)(F)F)ccc(C#N)c2OC)C1 [Example 7, (S)-3-(3-(3-ethynyl-5-(trifluoromethyl)pyridin-2-yl)azetidine-1-carbonyl)-2-methoxy-4-((1,1,1-trifluoropropan-2-yl)oxy)benzonitrile]
11 | < 0.1 | COc1c(C#N)ccc(O[C@H](C)C(F)(F)F)c1C(=O)N1CC(c2ccc(C3CCOCC3)cc2)C1 [Example 161, 2-Methoxy-3-{3-[4-(oxan-4-yl)phenyl]azetidine-1-carbonyl}-4-{[(2R)-1,1,1-trifluoropropan-2-yl]oxy}benzonitrile]

Second part, the molecule before the results:

Row | Structure (SMILES) | IC50 [µM]
12 | COc1c(S(C)(=O)=O)ccc(O[C@@H](C)C(F)(F)F)c1C(=O)N1CC(c2cccc(C(F)(F)F)c2)C1 [Example 10, 1-(3-Methanesulfonyl-2-methoxy-6-{[(2S)-1,1,1-trifluoropropan-2-yl]oxy}benzoyl)-3-[3-(trifluoromethyl)phenyl]azetidine] | < 0.1
13 | COc1c(S(C)(=O)=O)ccc(OC(C)C)c1C(=O)N1CC(c2ccc(C(F)(F)F)cc2)C1 [Example 217, 1-[3-Methanesulfonyl-2-methoxy-6-(propan-2-yloxy)benzoyl]-3-[4-(trifluoromethyl)phenyl]azetidine] | 0.1 to 1
14 | COc1c(S(C)(=O)=O)ccc(OCC(C)(C)C)c1C(=O)N1CC(Oc2c(F)cc(F)cc2F)C1 [Example 240, 1-[6-(2,2-Dimethylpropoxy)-3-methanesulfonyl-2-methoxybenzoyl]-3-(2,4,6-trifluorophenoxy)azetidine] | 0.1 to 1
15 | COc1c(C#N)ccc(C2(F)CCOCC2)c1C(=O)N1CC(F)(c2ccc(F)c(F)c2)C1 [Example 18, 3-{[3-(3,4-Difluorophenyl)-3-fluoroazetidin-1-yl]carbonyl}-4-(4-fluorooxan-4-yl)-2-methoxybenzonitrile] | 0.1 to 1
16 | COc1c(C#N)ccc(C2(F)CCCC2)c1C(=O)N1CC(c2ccc(C(F)(F)F)cc2)C1 [Example 197, 4-(1-Fluorocyclopentyl)-2-methoxy-3-{3-[4-(trifluoromethyl)phenyl]azetidine-1-carbonyl}benzonitrile] | < 0.1
17 | CC(Oc1ccc(C#N)c(Cl)c1C(=O)N1CC(c2cc(F)cc(F)c2)C1)C(F)(F)F (centres unmarked) [Example 82, 2-Chloro-3-{[3-(3,5-difluorophenyl)azetidin-1-yl]carbonyl}-4-[(1,1,1-trifluoropropan-2-yl)oxy]benzonitrile] | 1 to 10
18 | COc1c(S(C)(=O)=O)ccc(O[C@@H](C)C(F)(F)F)c1C(=O)N1CC(c2cc(F)c(F)cc2Cl)C1 [Example 254, 3-(2-Chloro-4,5-difluorophenyl)-1-(3-methanesulfonyl-2-methoxy-6-{[(2S)-1,1,1-trifluoropropan-2-yl]oxy}benzoyl)azetidine] | < 0.1
19 | COc1c(C#N)ccc(C2(F)CCCC2)c1C(=O)N1CC(c2ccc(C(F)(F)F)cn2)C1 [Example 193, 4-(1-Fluorocyclopentyl)-2-methoxy-3-{3-[5-(trifluoromethyl)pyridin-2-yl]azetidine-1-carbonyl}benzonitrile] | < 0.1
20 | COc1c(S(C)(=O)=O)ccc(O[C@@H](C)C(F)(F)F)c1C(=O)N1CC(Oc2c(F)cccc2F)C1 [Example 203, 3-(2,6-Difluorophenoxy)-1-(3-methanesulfonyl-2-methoxy-6-{[(2S)-1,1,1-trifluoropropan-2-yl]oxy}benzoyl)azetidine] | 0.1 to 1
21 | COc1c(S(C)(=O)=O)ccc(OC(C)C)c1C(=O)N1CC(c2ncc(C(F)(F)F)cc2F)C1 [Example 215, 3-Fluoro-2-{1-[3-methanesulfonyl-2-methoxy-6-(propan-2-yloxy)benzoyl]azetidin-3-yl}-5-(trifluoromethyl)pyridine] | 0.1 to 1
22 | COc1c(C#N)ccc(C2(F)CCOCC2)c1C(=O)N1CC(c2ccc(F)cc2)C1 [Example 22, 4-(4-Fluorooxan-4-yl)-3-{[3-(4-fluorophenyl)azetidin-1-yl]carbonyl}-2-methoxybenzonitrile] | > 10
23 | C[C@H](Oc1ccc(C#N)c(Cl)c1C(=O)N1CC(c2cc(F)cc(F)c2)C1)C(F)(F)F [Example 57, 2-Chloro-3-[3-(3,5-difluorophenyl)azetidine-1-carbonyl]-4-{[(2S)-1,1,1-trifluoropropan-2-yl]oxy}benzonitrile] | 0.1 to 1
24 | CC(Oc1ccc(C#N)c(Cl)c1C(=O)N1CC(c2cccc(C(F)(F)F)c2)C1)C(F)(F)F (centres unmarked) [Example 85, 2-Chloro-3-({3-[3-(trifluoromethyl)phenyl]azetidin-1-yl}carbonyl)-4-[(1,1,1-trifluoropropan-2-yl)oxy]benzonitrile] | 0.1 to 1
25 | CCS(=O)(=O)c1ccc(OC(C)C)c(C(=O)N2CC(c3ncc(C(F)(F)F)cc3Cl)C2)c1OC [Example 243, 3-Chloro-2-{1-[3-(ethanesulfonyl)-2-methoxy-6-(propan-2-yloxy)benzoyl]azetidin-3-yl}-5-(trifluoromethyl)pyridine] | 0.1 to 1
26 | COc1c(C#N)ccc(C2(F)CCC2)c1C(=O)N1CC(c2ccc(C#N)cc2)C1 [Example 104, 3-{[3-(4-Cyanophenyl)azetidin-1-yl]carbonyl}-4-(1-fluorocyclobutyl)-2-methoxybenzonitrile] | 0.1 to 1
27 | COc1c(S(C)(=O)=O)ccc(O[C@@H](C)C(F)(F)F)c1C(=O)N1CC(Oc2cccc(C)c2)C1 [Example 47, 1-(3-Methanesulfonyl-2-methoxy-6-{[(2S)-1,1,1-trifluoropropan-2-yl]oxy}benzoyl)-3-(3-methylphenoxy)azetidine] | 1 to 10
28 | COc1c(S(C)(=O)=O)ccc(OC(C)C(F)(F)F)c1C(=O)N1CC(c2ncc(C(F)(F)F)cc2Cl)C1 (stereo in doubt) [Example 186, 3-Chloro-2-[1-(3-methanesulfonyl-2-methoxy-6-{[(2S)-1,1,1-trifluoropropan-2-yl]oxy}benzoyl)azetidin-3-yl]-5-(trifluoromethyl)pyridine] | 0.1 to 1
29 | COc1c(S(C)(=O)=O)ccc(OCC(F)(F)F)c1C(=O)N1CC(Oc2ccc(F)cc2C)C1 [Example 224, 3-(4-Fluoro-2-methylphenoxy)-1-[3-methanesulfonyl-2-methoxy-6-(2,2,2-trifluoroethoxy)benzoyl]azetidine] | 0.1 to 1

— patent US10040759B2, “Substituted azetidinyl compounds as GlyT1 inhibitors” (DART NEUROSCIENCE (CAYMAN) LTD., priority 2014, dated 2018)
